Like-named read-outs stand apart in the source and are kept apart here.

The target in test [1] is T1, Human KIF18A (amino acid sequence 1-417) (Homo sapiens, UniProt Q8NI77).
T1 construct: purchased Viva Biotech (Shanghai) Ltd
T1 sequence (Q8NI77 1-417): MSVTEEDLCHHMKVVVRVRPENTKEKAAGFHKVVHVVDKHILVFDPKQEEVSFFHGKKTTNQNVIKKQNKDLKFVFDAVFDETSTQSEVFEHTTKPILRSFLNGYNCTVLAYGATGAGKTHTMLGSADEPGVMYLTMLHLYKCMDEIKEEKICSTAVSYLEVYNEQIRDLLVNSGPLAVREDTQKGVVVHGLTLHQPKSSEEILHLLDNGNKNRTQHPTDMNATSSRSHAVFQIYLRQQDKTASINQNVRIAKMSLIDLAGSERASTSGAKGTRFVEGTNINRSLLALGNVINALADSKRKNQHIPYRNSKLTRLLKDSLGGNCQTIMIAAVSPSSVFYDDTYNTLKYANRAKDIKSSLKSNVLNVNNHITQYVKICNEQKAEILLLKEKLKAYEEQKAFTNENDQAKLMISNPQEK
Nature of the test: Enzymatic activity test (ADP-Glo, microtubule-stimulated ATPase). In kind it is biochemical. The note with it: 60 µg/mL microtubules, 25 µM ATP, 2.5 nM KIF18A protein, 120 min at ambient temperature, chemiluminescence; read-out: KIF18A IC50. The procedure:
Materials: Human KIF18A (amino acid sequence 1-417) was purchased from Viva Biotech (Shanghai) Ltd.; the ADP-Glo™ protein kinase kit was acquired from Promega, USA; tubulin was sourced from Cytoskeleton, USA; and the 384-well assay plate and Envision multifunctional microplate reader were obtained from PerkinElmer, USA.
Enzymatic Activity Test: The compound powder was dissolved in DMSO to prepare a stock solution of 10 mM. Then gradient dilution was performed for the compounds in the microplate to achieve a final concentration of 0-10 µM. Then, 2.5 µL each of tubulin, compound, ATP, and KIF18A protein were added to the microplate in sequence for reaction at ambient temperature for 120 min. The final concentrations in the enzyme reaction were 60 µg/mL for microtubules, 25 µM for ATP, and 2.5 nM for KIF18A protein. After the enzyme reaction, 10 µL of ADP-GLO reaction reagent was added to each well and incubated at room temperature for 30 min. After that, 20 µL of detection reagent was added to each well and incubated at room temperature for 30 min in the dark. Finally, chemiluminescence detection was performed using the PerkinElmer Envision.
In general terms: In ADP-Glo the light output rises with the ADP produced.

Another test has as its system OVCAR3 cells. Put plainly: Cell proliferation activity test (CyQUANT Direct). Type of test: cell-based. Conditions: 3 days, 0.2% DMSO, CyQUANT fluorescence. The method, then: Materials and Cells: OVCAR3 cells were purchased from Nanjing Cobioer Biosciences Co., Ltd. RPMI-1640 medium, fetal bovine serum, and the CyQUANT Direct Cell Proliferation Assay kit were purchased from Thermo Fisher Scientific, USA; 96-well cell culture plates were sourced from Corning, USA.
Cell Culture: OVCAR3 cells were cultured with RPMI-1640 medium containing 10% fetal bovine serum and incubated in a 5% CO2 incubator at 37°C. Only cells in the logarithmic growth phase could be used for the test.
OVCAR3 cells were inoculated into a 96-well cell culture plate at 90 µL per well and incubated overnight in a 5% CO2 incubator at 37°C. The compound powder was dissolved in DMSO to prepare a stock solution of 10 mM. Then gradient dilution was performed for the compounds in the microplate to achieve a final concentration of 0-10 µM. 10 µL of cell culture medium containing compounds was added to each well to make the final DMSO content 0.2%. The cell plates were incubated in a 5% CO2 incubator at 37°C for 3 days. 100 µL of CyQUANT detection reagent was added to each well, reacted at 37°C for 60 min, and fluorescence detection was performed using the PerkinElmer Envision.

In the next test the test system is HT29 cells. Nature of the test: CyQuant cell proliferation activity test. In kind it is cell-based. The note with it: HT29 at 2000 cells per well, 3 days, 0.2% DMSO, XLFIT. The procedure: Materials and Cells: HT29 cells were purchased from Nanjing Cobioer Biosciences Co., Ltd.; RPMI-1640 medium, fetal bovine serum, Trypsin-EDTA (0.25%), 96-well plates, and CyQuant reagents were purchased from ThermoFisher (USA); DMSO was purchased from SIGMA (USA).
Cell Culture: HT29 cells were cultured with RPMI-1640 containing 10% fetal bovine serum under the condition of 37°C and 5% CO2. Only cells in the logarithmic growth phase could be used for the test.
Cell Proliferation Activity Test: CyQuant reagent was used to detect the proliferation inhibitory activity of compounds on HT29 cells. The cell density was adjusted, and 100 µL per well was inoculated into a 96-well plate (HT29 at 2000 cells per well), then incubated overnight at 37°C and 5% CO2. Add compounds of various target concentrations (initial concentration of 3000 nM, 3-fold dilution, 9 concentration gradients), and make the DMSO content 0.2%. The cell plate was incubated at 37°C in 5% CO2 for 3 days. CyQuant reagent was added and incubated for 1 h. The plates were read by Envision, and IC50 was calculated using XLFIT.

Take `Cc1cc2nc(n1)N1CCC(F)(F)C(/C=C\CC3CCN(CC3)c3cc(NS(=O)(=O)CCO)c4ccccc4c3C(=O)N2)C1` (single isomer, unassigned) [Example 1B, (cis)-N-(1^4,1^4-difluoro-2^6-methyl-4-oxo-3-aza-2(2,4)-pyrimidin-1(1,3),6(1,4)-dipiperidin-5(1,2)-naphthacyclonon-8-en-5^4-yl)-2-hydroxyethane-1-sulfonamide]: the IC50 in test [1] worked out at 220 nM; with OVCAR3 cells it was 22 nM; in the test with HT29 cells (read-out: HT-29 IC50), 22 nM.

With `Cc1cc2nc(n1)N1CCC(F)(F)C(/C=C/CC3CCN(CC3)c3cc(NS(=O)(=O)CCO)c4ccccc4c3C(=O)N2)C1` (single isomer, unassigned) [Example 1C, (trans)-N-(1^4,1^4-difluoro-2^6-methyl-4-oxo-3-aza-2(2,4)-pyrimidin-1(1,3),6(1,4)-dipiperidin-5(1,2)-naphthacyclonon-8-en-5 ^4-yl)-2-hydroxyethane-1-sulfonamide], the IC50 is 1060 nM in test [1], 1020 nM in the test with OVCAR3 cells and 1020 nM in the test with HT29 cells (read-out: HT-29 IC50).

With `Cc1cc2nc(n1)N1CCC(F)(F)C(/C=C/CC3CCN(CC3)c3cc(NS(=O)(=O)CCO)c4ccccc4c3C(=O)N2)C1` (single isomer, unassigned) [Example 1D, (trans)-N-(1^4,1^4-difluoro-2^6-methyl-4-oxo-3-aza-2(2,4)-pyrimidin-1(1,3),6(1,4)-dipiperidin-5(1,2)-naphthacyclonon-8-en-5 ^4-yl)-2-hydroxyethane-1-sulfonamide], the figures for the IC50 (in test [1]; with OVCAR3 cells; in the test with HT29 cells (read-out: HT-29 IC50)) were 211 nM, 137 nM and 137 nM, respectively.

On to `Cc1cc2nc(n1)N1CCC(F)(F)C(C=CCC3CCN(CC3)c3cc(NS(=O)(=O)CCO)c4c(c3C(=O)N2)CCC4=O)C1` (single isomer, unassigned) [Example 2A, N-(1^4,1^4-difluoro-2^6-methyl-5^1,4-dioxo-5^2,5^3-dihydro-5^1H-3-aza-2(2,4)-pyrimidin-1(1,3),6(1,4)-dipiperidin-5(4,5)-indenoheterocyclonon-8-en-5^7-yl)-2-hydroxyethane-1-sulfonamide], for which the IC50 in test [1] was found to be 35 nM; in the test on OVCAR3 cells, 8 nM; in the test with HT29 cells (read-out: HT-29 IC50) it was 9 nM.

On to `Cc1cc2nc(n1)N1CCC(F)(F)C(C=CCC3CCN(CC3)c3cc(NS(=O)(=O)CCO)c4c(c3C(=O)N2)CCC4=O)C1` (single isomer, unassigned) [Example 2B, N-(1^4,1^4-difluoro-2^6-methyl-5^1,4-dioxo-5^2,5^3-dihydro-5^1H-3-aza-2(2,4)-pyrimidin-1(1,3),6(1,4)-dipiperidin-5(4,5)-indenoheterocyclonon-8-en-5^7-yl)-2-hydroxyethane-1-sulfonamide], for which the IC50 in test [1] stood at 3550 nM; with OVCAR3 cells, 639 nM; in the test on HT29 cells (read-out: HT-29 IC50) it was 639 nM.

On to `Cc1cc2nc(n1)N1CCC(F)(F)C(C=CCC3CCN(CC3)c3cc(NS(=O)(=O)CCO)c4c(c3C(=O)N2)CCC4=O)C1` (single isomer, unassigned) [Example 2C, N-(1^4,1^4-difluoro-2^6-methyl-5^1,4-dioxo-5^2,5^3-dihydro-5^1H-3-aza-2(2,4)-pyrimidin-1(1,3),6(1,4)-dipiperidin-5(4,5)-indenoheterocyclonon-8-en-5^7-yl)-2-hydroxyethane-1-sulfonamide], for which the IC50 in test [1] came to 43 nM; with OVCAR3 cells, 25 nM; in the test with HT29 cells (read-out: HT-29 IC50), 25 nM.

As to `Cc1cc2nc(n1)N1CCC(F)(F)C(C=CCC3CCN(CC3)c3cc(NS(=O)(=O)CCO)c4c(c3C(=O)N2)CCC4=O)C1` (single isomer, unassigned) [Example 2D, N-(1^4,1^4-difluoro-2^6-methyl-5^1,4-dioxo-5^2,5^3-dihydro-5^1H-3-aza-2(2,4)-pyrimidin-1(1,3),6(1,4)-dipiperidin-5(4,5)-indenoheterocyclonon-8-en-5^7-yl)-2-hydroxyethane-1-sulfonamide], the half-maximal inhibitory concentration (IC50) worked out at 546 nM in test [1], 679 nM in the test on OVCAR3 cells and 679 nM in the test on HT29 cells (read-out: HT-29 IC50).

`Cc1cc2nc(n1)N1CCC(F)(F)C(CCCc3ccc(cc3)-c3cc(NS(=O)(=O)CCO)ccc3C(=O)N2)C1` (single isomer, unassigned) [Example 46A, N-(1^4,1^4-difluoro-2^6-methyl-4-oxo-3-aza-2(2,4)-pyrimidin-1(1,3)-piperidin-5(1,2),6(1,4)-diphenylheterocyclononane-5^4-yl)-2-hydroxyethane-1-sulfonamide]: the half-maximal inhibitory concentration (IC50) in test [1] worked out at 117 nM; in the test on OVCAR3 cells (Homo sapiens, OVCAR-3, 72 h) it was 36 nM; in the test on HT29 cells (Homo sapiens, HT-29, 72 h) it was 58 nM.

For `COc1cc2nc(n1)N1CCC(F)(F)C(CCCc3ccc(cc3)-c3cc(NS(=O)(=O)CCO)ccc3C(=O)N2)C1` (single isomer, unassigned) [Example 51A, N-(1^4,1^4-difluoro-2^6-methoxy-4-oxo-3-aza-2(2,4)-pyrimidin-1(1,3)-piperidin-5(1,2),6(1,4)-dibenzylcyclononane-5^4-yl)-2-hydroxyethane-1-sulfonamide], the IC50 is 107 nM in test [1]; 45 nM in the test on OVCAR3 cells (Homo sapiens, OVCAR-3, 72 h); 39 nM in the test with HT29 cells (Homo sapiens, HT-29, 72 h).

Regarding `COc1cc2nc(n1)N1CCC(F)(F)C(CCCc3ccc(cc3)-c3cc(NS(=O)(=O)CCO)ccc3C(=O)N2)C1` (single isomer, unassigned) [Example 51B, N-(1^4,1^4-difluoro-2^6-methoxy-4-oxo-3-aza-2(2,4)-pyrimidin-1(1,3)-piperidin-5(1,2),6(1,4)-dibenzylcyclononane-5^4-yl)-2-hydroxyethane-1-sulfonamide], the results for the 50% inhibitory concentration (IC50) (in test [1]; in the test on OVCAR3 cells; with HT29 cells (read-out: HT-29 IC50)) were 144 nM, 72 nM and 74 nM, respectively.

With `COc1cc2nc(n1)N1CCC(F)(F)C(CCCc3ccc(cc3)-c3cc(NS(=O)(=O)CCO)ncc3C(=O)N2)C1` (single isomer, unassigned) [Example 56A, N-(1^4,1^4-difluoro-2^6-methoxy-4-oxo-3-aza-2(2,4)-pyrimidin-5(3,4)-pyridin-1(1,3)-piperidin-6(1,4)-benzoazacyclononane-5^6-yl)-2-hydroxyethane-1-sulfonamide], the IC50 in test [1] came to 41 nM; with OVCAR3 cells (Homo sapiens, OVCAR-3, 72 h) it was 188 nM; in the test on HT29 cells (Homo sapiens, HT-29, 72 h), 378 nM.

Consider `COc1cc2nc(n1)N1CCC(F)(F)C(CCCc3ccc(cc3)-c3cc(NS(=O)(=O)CCO)ncc3C(=O)N2)C1` (single isomer, unassigned) [Example 56B, N-(1^4,1^4-difluoro-2^6-methoxy-4-oxo-3-aza-2(2,4)-pyrimidin-5(3,4)-pyridin-1(1,3)-piperidin-6(1,4)-benzoazacyclononane-5^6-yl)-2-hydroxyethane-1-sulfonamide], for which the IC50 in test [1] is 9 nM; in the test with OVCAR3 cells, 112 nM; in the test with HT29 cells (read-out: HT-29 IC50), 192 nM.

The term IC50 denotes the concentration needed to halve the response being measured.

For the origin of these results see EP4772509A1, “KINESIN KIF18A INHIBITOR, AND APPLICATION THEREOF” (Shanghai Apeiron Therapeutics Company Limited, priority 2023, dated 2025).
